Reference: patent US7118895B2, “Process for producing aglycon by using diglycosidase and flavor-improved food containing the aglycon and converting agent to be used in the process” (Amano Enzyme Inc., priority 2000, dated 2006)

Tested on: Crude diglycosidase
Assay: Examination of pH in the conversion into isoflavone aglycons by diglycosidase using soybean materials
Assay type: biochemical, Penicillium multicolor IAM7153
Details: for Decomposition efficiency of glycitin family in roasted soy flour / Decomposition efficiency of glycitin family in soymilk: 55° C.
Description: A substrate solution of 450 μL was prepared by suspending 50 mg of each soybean material (roasted soy flour (manufactured by Fuji Shokuryo K.K.), soymilk (manufactured by Gitoh Shokuhin K.K.), defatted soybean (manufactured by Fuji Seiyu K.K.), concentrated soybean protein (manufactured by Fuji Seiyu K.K.)), and adjusting the pH to 2 to 11 with hydrochloric acid or sodium hydroxide. Each enzyme solution of pH 2–11 wherein diglycosidase activity of crude diglycosidase was adjusted to 1.88 AU/mL was added thereto in an amount of 50 μL and the whole was reacted at 55° C. at the total volume of 500 μL. To the reaction mixture was added 700 μL of ethanol after 0, 1, 3, and 6 hours of the reaction. After stirring and ultrasonication, the mixture was subjected to centrifugal separation at 15,000 rpm and 4° C. for 10 minutes. The supernatant was filtered through a filter and the existence of isoflavone glycosides and aglycon isoflavones contained in the reaction mixture was detected by HLPC (Tables 15 to 26).

Decomposition efficiency of glycitin family in concentrated soybean protein (pH1.6, heat treatment of enzyme: no, reaction time 0 h): 35.9% | Decomposition efficiency of glycitin family in concentrated soybean protein (pH1.6, heat treatment of enzyme: no, reaction time 1 h): 35.1% | Decomposition efficiency of glycitin family in concentrated soybean protein (pH1.6, heat treatment of enzyme: no, reaction time 3 h): 33.5% | Decomposition efficiency of glycitin family in concentrated soybean protein (pH1.6, heat treatment of enzyme: no, reaction time 6 h): 31.8% | Decomposition efficiency of glycitin family in concentrated soybean protein (pH1.6, heat treatment of enzyme: yes, reaction time 6 h): 30.9% | Decomposition efficiency of glycitin family in roasted soy flour (pH2, heat treatment of enzyme no, reaction time 0 h): 35.3 | Decomposition efficiency of glycitin family in roasted soy flour (pH2, heat treatment of enzyme no, reaction time 1 h): 34.0 | Decomposition efficiency of glycitin family in roasted soy flour (pH2, heat treatment of enzyme no, reaction time 3 h): 34.2 | Decomposition efficiency of glycitin family in roasted soy flour (pH2, heat treatment of enzyme no, reaction time 6 h): 35.5 | Decomposition efficiency of glycitin family in roasted soy flour (pH2, heat treatment of enzyme yes, reaction time 6 h): 35.2 | Decomposition efficiency of glycitin family in soymilk (pH2.3, heat treatment of enzyme no, reaction time 0 h): not detected | Decomposition efficiency of glycitin family in soymilk (pH2.3, heat treatment of enzyme no, reaction time 1 h): not detected | Decomposition efficiency of glycitin family in soymilk (pH2.3, heat treatment of enzyme no, reaction time 3 h): not detected | Decomposition efficiency of glycitin family in soymilk (pH2.3, heat treatment of enzyme no, reaction time 6 h): not detected | Decomposition efficiency of glycitin family in soymilk (pH2.3, heat treatment of enzyme yes, reaction time 6 h): not detected | Decomposition efficiency of glycitin family in defatted soybean (pH2.6, heat treatment of enzyme: no, reaction time 0 h): not detected | Decomposition efficiency of glycitin family in defatted soybean (pH2.6, heat treatment of enzyme: no, reaction time 1 h): not detected | Decomposition efficiency of glycitin family in defatted soybean (pH2.6, heat treatment of enzyme: no, reaction time 3 h): not detected | Decomposition efficiency of glycitin family in defatted soybean (pH2.6, heat treatment of enzyme: no, reaction time 6 h): not detected | Decomposition efficiency of glycitin family in defatted soybean (pH2.6, heat treatment of enzyme: yes, reaction time 6 h): not detected | Decomposition efficiency of glycitin family in concentrated soybean protein (pH2.7, heat treatment of enzyme: no, reaction time 0 h): 35.9% | Decomposition efficiency of glycitin family in concentrated soybean protein (pH2.7, heat treatment of enzyme: no, reaction time 1 h): 36.6% | Decomposition efficiency of glycitin family in concentrated soybean protein (pH2.7, heat treatment of enzyme: no, reaction time 3 h): 36.5% | Decomposition efficiency of glycitin family in concentrated soybean protein (pH2.7, heat treatment of enzyme: no, reaction time 6 h): 36.6% | Decomposition efficiency of glycitin family in concentrated soybean protein (pH2.7, heat treatment of enzyme: yes, reaction time 6 h): 35.4% | Decomposition efficiency of glycitin family in roasted soy flour (pH3, heat treatment of enzyme no, reaction time 0 h): 35.3 | Decomposition efficiency of glycitin family in roasted soy flour (pH3, heat treatment of enzyme no, reaction time 1 h): 38.7 | Decomposition efficiency of glycitin family in roasted soy flour (pH3, heat treatment of enzyme no, reaction time 3 h): 30.8 | Decomposition efficiency of glycitin family in roasted soy flour (pH3, heat treatment of enzyme no, reaction time 6 h): 31.7 | Decomposition efficiency of glycitin family in roasted soy flour (pH3, heat treatment of enzyme yes, reaction time 6 h): 35.6 | Decomposition efficiency of glycitin family in defatted soybean (pH3.4, heat treatment of enzyme: no, reaction time 0 h): not detected | Decomposition efficiency of glycitin family in defatted soybean (pH3.4, heat treatment of enzyme: no, reaction time 1 h): not detected | Decomposition efficiency of glycitin family in defatted soybean (pH3.4, heat treatment of enzyme: no, reaction time 3 h): not detected | Decomposition efficiency of glycitin family in defatted soybean (pH3.4, heat treatment of enzyme: no, reaction time 6 h): not detected | Decomposition efficiency of glycitin family in defatted soybean (pH3.4, heat treatment of enzyme: yes, reaction time 6 h): not detected | Decomposition efficiency of glycitin family in soymilk (pH3.5, heat treatment of enzyme no, reaction time 0 h): not detected | Decomposition efficiency of glycitin family in soymilk (pH3.5, heat treatment of enzyme no, reaction time 1 h): not detected | Decomposition efficiency of glycitin family in soymilk (pH3.5, heat treatment of enzyme no, reaction time 3 h): not detected | Decomposition efficiency of glycitin family in soymilk (pH3.5, heat treatment of enzyme no, reaction time 6 h): not detected | Decomposition efficiency of glycitin family in soymilk (pH3.5, heat treatment of enzyme yes, reaction time 6 h): not detected | Decomposition efficiency of glycitin family in concentrated soybean protein (pH3.7, heat treatment of enzyme: no, reaction time 0 h): 36.1% | Decomposition efficiency of glycitin family in concentrated soybean protein (pH3.7, heat treatment of enzyme: no, reaction time 1 h): 32.9% | Decomposition efficiency of glycitin family in concentrated soybean protein (pH3.7, heat treatment of enzyme: no, reaction time 3 h): 26.1% | Decomposition efficiency of glycitin family in concentrated soybean protein (pH3.7, heat treatment of enzyme: no, reaction time 6 h): 22.1% | Decomposition efficiency of glycitin family in concentrated soybean protein (pH3.7, heat treatment of enzyme: yes, reaction time 6 h): 35.9% | Decomposition efficiency of glycitin family in roasted soy flour (pH4, heat treatment of enzyme no, reaction time 0 h): 34.8 | Decomposition efficiency of glycitin family in roasted soy flour (pH4, heat treatment of enzyme no, reaction time 1 h): 18.8 | Decomposition efficiency of glycitin family in roasted soy flour (pH4, heat treatment of enzyme no, reaction time 3 h): 8.2 | Decomposition efficiency of glycitin family in roasted soy flour (pH4, heat treatment of enzyme no, reaction time 6 h): not detected | Decomposition efficiency of glycitin family in roasted soy flour (pH4, heat treatment of enzyme yes, reaction time 6 h): 35.9 | Decomposition efficiency of glycitin family in soymilk (pH4.8, heat treatment of enzyme no, reaction time 0 h): not detected | Decomposition efficiency of glycitin family in soymilk (pH4.8, heat treatment of enzyme no, reaction time 1 h): not detected | Decomposition efficiency of glycitin family in soymilk (pH4.8, heat treatment of enzyme no, reaction time 3 h): not detected | Decomposition efficiency of glycitin family in soymilk (pH4.8, heat treatment of enzyme no, reaction time 6 h): not detected | Decomposition efficiency of glycitin family in soymilk (pH4.8, heat treatment of enzyme yes, reaction time 6 h): not detected | Decomposition efficiency of glycitin family in defatted soybean (pH4.8, heat treatment of enzyme: no, reaction time 0 h): not detected | Decomposition efficiency of glycitin family in defatted soybean (pH4.8, heat treatment of enzyme: no, reaction time 1 h): not detected | Decomposition efficiency of glycitin family in defatted soybean (pH4.8, heat treatment of enzyme: no, reaction time 3 h): not detected | Decomposition efficiency of glycitin family in defatted soybean (pH4.8, heat treatment of enzyme: no, reaction time 6 h): not detected | Decomposition efficiency of glycitin family in defatted soybean (pH4.8, heat treatment of enzyme: yes, reaction time 6 h): not detected
Compound: COc1cc2c(=O)c(-c3ccc(O)cc3)coc2cc1O[C@@H]1O[C@H](COC(C)=O)[C@@H](O)[C@H](O)[C@H]1O [acetylglycitin, 6″-O-acetylglycitin]
